ChEMBL document CHEMBL1142557, “Novel bioactive sulfated alkene and alkanes from the mediterranean ascidian Halocynthia papillosa” (J Nat Prod, 2000)
Converted amounts (≈) assume the structure as drawn. The source made the active and inactive calls. No cut-off for these calls is given here.

Legend:
WEHI-164 = assay: Cytotoxicity against mouse WEHI164 cells assessed as cell viability after 96 hrs by MTT assay; type: functional, cell-based; settings: WEHI-164, 96 h
C6 = assay: Cytotoxicity against rat C6 cells assessed as cell viability after 96 hrs by MTT assay; type: functional, cell-based; settings: for IC50: C6, 96 h

Row | SMILES | IC50 (WEHI-164) [µg/mL] | IC50 (C6) [µg/mL] | Activity (C6)
1 | Sc1ncnc2nc[nH]c12 [MERCAPTOPURINE ANHYDROUS] | 1.3 (≈ 8.54 µM) | 30.2 (≈ 198 µM) | –
2 | CC(C)CCCCCOS(=O)(=O)O | 15 (≈ 71.3 µM) | 545 (≈ 2590 µM) | –
3 | CCC=CCCCCOS(=O)(=O)O | 12.2 (≈ 58.6 µM) | 515 (≈ 2470 µM) | –
4 | CC(C)CCC[C@@H](C)COS(=O)(=O)O | 20.9 (≈ 93.2 µM) | – | inactive
